This data set deals with T1, PSMA receptor (Homo sapiens, UniProt Q04609).
T1 construct: localises at sites that overexpress the PSMA receptor and are indicative of a cancer; from tissue; host or cells: Primary prostate cancer and metastatic lesions (lymph node, bone, prostatic bed) in living patients
The data set is described as follows: Same-day (Day 0) versus next-day (Day 1) PET imaging of patients. The data set is classed as in vivo.

Setting [1] is: next-day imaging, Day 1, same subject.

“Also recorded” adds a separate entry of the source.

T1 sequence (Q04609 whole entry): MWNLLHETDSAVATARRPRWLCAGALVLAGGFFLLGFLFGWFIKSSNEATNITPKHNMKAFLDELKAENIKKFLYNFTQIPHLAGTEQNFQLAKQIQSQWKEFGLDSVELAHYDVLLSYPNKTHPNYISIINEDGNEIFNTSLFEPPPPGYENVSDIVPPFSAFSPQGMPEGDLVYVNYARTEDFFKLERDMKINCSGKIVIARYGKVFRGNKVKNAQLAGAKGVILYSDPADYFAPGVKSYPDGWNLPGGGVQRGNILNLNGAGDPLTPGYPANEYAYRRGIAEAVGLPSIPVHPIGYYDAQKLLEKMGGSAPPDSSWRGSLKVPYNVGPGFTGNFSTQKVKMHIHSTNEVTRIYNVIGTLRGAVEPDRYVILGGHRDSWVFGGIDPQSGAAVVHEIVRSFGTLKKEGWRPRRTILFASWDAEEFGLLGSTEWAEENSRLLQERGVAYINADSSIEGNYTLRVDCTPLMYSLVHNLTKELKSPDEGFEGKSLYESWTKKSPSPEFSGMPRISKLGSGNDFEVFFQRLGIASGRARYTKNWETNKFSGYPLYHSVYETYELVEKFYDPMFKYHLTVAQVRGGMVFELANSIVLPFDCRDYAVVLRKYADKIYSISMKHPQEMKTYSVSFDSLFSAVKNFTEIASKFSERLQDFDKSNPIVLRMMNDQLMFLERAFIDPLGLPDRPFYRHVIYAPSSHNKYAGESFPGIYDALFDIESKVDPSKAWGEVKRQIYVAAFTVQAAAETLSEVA

As for Sar-bisPSMA [^64Cu-SAR-bisPSMA], the “Increase of SUVmax, next-day compared to same-day imaging (FIG. 7)” value (Day 1 vs Day 0) was “more than double”. The “SUVmax Day 1 relative to previous day (FIG. 9)” value (Day 1 vs same day) came to 4 times. Also, the “Average SUVmax for the bone and pelvic lymph node lesions (FIG. 11B)” value (following day imaging, same patient) came to 20.0. Besides, the “Lesion visualisation on PET (words)” value reads like this: (next-day imaging (Day 1), FIGS. 8-12, listed as 64Cu Sar-bisPSMA) “clearly identified a lesion”; (next-day imaging (Day 1), FIGS. 8-12, listed as 64Cu-Sar-bisPSMA) “identified by three readers; also recorded: more positive lesions; also recorded: only visualised with imaging on the following day; also recorded: additional positive lesions”; (next-day imaging (Day 1), FIGS. 8-12, listed as compound of Formula (I) complexed with ^64Cu) “successfully identifies a lesion”; (same-day imaging (Day 0), FIGS. 8-9, listed as 64Cu Sar-bisPSMA) “negative”; (same-day imaging (Day 0), FIGS. 8-9, listed as 64Cu-Sar-bisPSMA) “less apparent; also recorded: not visualised”; (same-day imaging (Day 0), FIGS. 8-9, listed as compound of Formula (I) complexed with ^64Cu) “does not clearly visualise a lesion”. Also, under setting [1], the “SUVmax of lesion (FIG. 9C)” value is 17.5. Also, the “SUVmax of positive pelvic lymph node lesion (FIG. 7)” value runs as follows: under setting [1], 50.4; (same-day imaging, Day 0, one subject) 20.8. Further, the “Average SUVmax for the bone and pelvic lymph node lesions (FIG. 11A)” value (same day imaging, one patient) worked out at 9.8. Also, the “SUVmax of lesion (FIG. 9B)” value (same-day imaging, same subject) is listed as 4.3.
